Tested on: Vascular Cell Adhesion Molecule (VCAM) expression in primary human umbilical vein endothelial cells
Test: VCAM High Throughput Screen (TNF-α driven VCAM expression)
Assay type: cell-based
Conditions: HUVEC, TNF 1.0 ng/ml
Description: Description of Table V: The results shown in Table V were obtained using the TNF-α assays performed as described in the protocols entitled “Method for TNF High Throughput Screen” and “Method for VCAM High Throughput Screen”, which are detailed below. These assays measure a cellular response to TNF-α stimulation, and the data published in the table are expressed as percentage inhibitions. Percentage inhibition is computed on a scale of 0 to 100% where 0 percent inhibition means the compound has no effect in the assay (the response is indistinguishable from TNF-α treatment alone), and 100% inhibition means that when the compound is present at the stated concentration, the response in the assay is the same as if TNF-α were not added. These two assays measure two different outcomes of TNF-α treatment, cell death and Vascular Cell Adhesion Molecule (VCAM) expression, and capture two of TNF-α's many biological effects. TNF-α induced apoptosis is a mechanism by which TNF-α production during immune/inflammatory responses can lead to direct cellular and tissue damage. TNF-α VCAM expression in endothelial cells is a response that allows leukocytes to leave the blood and enter a site of immune/inflammatory response. Both of these activities could lead to pathology in immune/inflammatory diseases. In the first column of the table, the percentage inhibition of the TNF-α driven apoptosis assay when the compounds are tested at 1 μM concentration is presented. The second column in the table lists the IC50 for the compound, a standard measure using a dilution series in the assay, and fitting a sigmoidal curve to the resulting dose-response curve. The IC50 is the concentration (derived analytically from the sigmoidal function) at which the compound would inhibit 50% of the response in the assay. The third and fourth column list the corresponding analysis for the TNF-α driven VCAM assay. In Table VI, data corresponding to the data in column 1 of Table V is shown, with human cells replacing the mouse cells used in the high throughput screen. […] As a consequence, the compounds will have use in treating more than one TNF-α mediated condition, and may be selected according to the manner in which the condition manifests. This corresponds to the use of these compounds in the treatment of human disease.
• 1. Plate 4×10^4 L929 cells in 100 μl of complete EMEM in Costar 96 well plates in PM. • 2. The next day, pretreat with compound, inhibitor and control vehicle for 2 hours. • 3. After 2 hours pretreatment, add 10 μl 5 ng/ml human TNF-α and actinomycin D (40 μg/ml final concentration). • 4. Incubate overnight. • 5. In AM, remove supernatant. • 6. Wash on a plate washer (0.9% NaCl). • 7. […] Shake plates on orbital shaker and read at 595 nm on plate reader. […]

## N#Cc1cccc(C(C(=O)NCC(c2ccccc2)c2ccccc2)N(CCc2c[nH]cn2)C(=O)c2ccccc2C(=O)c2ccccc2)c1 (stereo not shown) [Compound 44]
  IC50: 24.4 µM

— US9579325B2, “Modulators of TNF-α signaling” (Genzyme Corporation, priority 2000, dated 2017)
